Patent publication US10308685B2, “Inhibitory peptides of viral infection” (UNIVERSITY OF TENNESSEE RESEARCH FOUNDATION, priority 2014, dated 2019)
Where no end group is shown, it is not given here.

Columns and labels:
[1] = system: MEF 10.1 cells; test: Measuring amount of bound biotinylated peptide on MEF 10.1 cells (time resolved fluorescence); assay type: binding, Mouse
Method: (§1) Heparinase I (cat. # H2519), Heparinase II (cat. # H6512), Heparinase III (cat. # H8891) and Chondroitinase ABC (cat. # C3667) were obtained from Sigma Aldrich (St. Louis, Mo.). MEF 10.1 cells in culture were treated with heparinase re-suspended in heparinase buffer (20 mM Tris-HCl, pH 7.5, 50 mM NaCl, 4 mM CaCl2, and 0.01% BSA) at a concentration of 1 U/ml or chondroitinase re-suspended in chondroitinase buffer (50 mM Tris, pH 8.0, 60 mM sodium acetate and 0.02% bovine serum albumin) at a concentration of 1 U/ml for 1 h. at 37° C. As a control, cells were treated with enzyme buffer alone. Following incubation the enzyme solution was removed and cells were washed once with PBS to remove excess enzyme. Subsequently the cells were treated with peptide or infected with virus. The data was collected and analyzed as described previously.
MEF 10.1 Cells were grown in 24-well cell culture plates as described above. Each well was probed with 100 μL of biotinylated peptides at 1 μg/mL in cold DMEM/F12 with 0.1% BSA and incubated for one hour at 4° C. Following the incubation the cells were washed twice with ice cold PBS and fixed with 1.25% glutaraldehyde. Fixed samples were washed twice and stored in PBS for 24 hours. […] The plate was washed three times with PBS, enhancement solution added, and time resolved fluorescence measured on the Wallac Victor 3 (Perkin-Elmer).

[2] = system: HCMV; test: Plaque reduction assay, HCMV infectivity in HFF cells; assay type: cell-based, Human Cytomegalovirus; conditions: 100 μM
Method: (§2) Murine Cytomegalovirus (MCMV) RM4503 was cultured in vitro in MEF 10.1 cells. The virus stock was titered using plaque assay (described below) and stored at −80° C. Human Cytomegalovirus (HCMV) TB40/E was obtained from (46, 47) and cultures in vitro in HFF cells. The virus stock was titered using plaque assay and stored at −80° C. HSV-1 and HSV-2 were cultured in vitro in VERO cells. The virus stock was titered using plaque assay and stored at −80° C.
(§3) Peptides were screened for their ability to reduce viral infection using a plaque reduction assay. Cells were cultured in 12-well (VERO) or 24-well culture plates (MEF 10.1 and HFF). When the cells reached ˜80% confluence the media was removed and the cells washed once with PBS before addition of peptide. As a control, cells were incubated with PBS alone. After a 30 min of incubation with peptide in PBS, the virus was added and incubated for another 90 min (HSV and HCMV) or 60 min (MCMV). Following virus incubation the peptide/virus mixture was removed and replaced with 0.75% carboxy-methyl cellulose (Sigma Aldrich, St. Louis, Mo.)+complete media (CMC) or 0.5% agarose (Lonza, Rockland, Me.) in complete media. […] Plaques were counted manually and data analyzed using Prism 5.0 (GraphPad Software, La Jolla, Calif.). Data were expressed as % plaques relative to the average number of plaques in the PBS-treated wells.

[3] = system: MCMV; assay type: cell-based, Murine Cytomegalovirus
Method: as §2
Peptides were screened for their ability to reduce viral infection using a plaque reduction assay. Cells were cultured in 12-well (VERO) or 24-well culture plates (MEF 10.1 and HFF). When the cells reached ˜80% confluence the media was removed and the cells washed once with PBS before addition of peptide. As a control, cells were incubated with PBS alone. After a 30 min of incubation with peptide in PBS, the virus was added and incubated for another 90 min (HSV and HCMV) or 60 min (MCMV). Following virus incubation the peptide/virus mixture was removed and replaced with 0.75% carboxy-methyl cellulose (Sigma Aldrich, St. Louis, Mo.)+complete media (CMC) or 0.5% agarose (Lonza, Rockland, Me.) in complete media. The plates were incubated at 37° C. in 5% CO2 for 4 days when plaques began to develop, following which they were stained with Coomassie stain (AMRESCO, Solon, Ohio). Plaques were counted manually and data analyzed using Prism 5.0 (GraphPad Software, La Jolla, Calif.). Data were expressed as % plaques relative to the average number of plaques in the PBS-treated wells.
In the initial screening assays all peptides were tested at a single concentration (500 μg/ml) using a plaque-reduction assay, in which mouse embryonic fibroblasts were incubated with the peptides for 30 min prior to the addition of virus.
In the infectivity assays described above the peptide and virus were co-incubated with the cells. Therefore to ensure the peptide was not directly inactivating the virus, MCMV was incubated with 100 μM (˜20× the IC50) peptide at 37° C. for 1 h, diluted to an ineffective peptide concentration (1 μM) and fibroblast infection rates measured.
To determine at which stage of the MCMV entry cycle the peptide interferes, four different peptide treatment protocols were tested, 1) 30 min. prior to infection (pre-adsorption) 2) simultaneously with virus (during adsorption) 3) after letting the virus adsorb to the cells at 4° C. for lhr (post adsorption) or 4) after allowing the virus to fuse with the cell membrane at 37° C. for lhr (post fusion) (FIG. 3(B)).

[4] = mouse, in vivo; cited from earlier work
[5] = system: MCMV; test: Enzymatic treatment of cells (heparinase / chondroitinase) followed by MCMV plaque reduction assay; assay type: cell-based, Murine Cytomegalovirus
Method: as §1

[6] = system: HSV-2; test: Plaque reduction assay, HSV-2 in VERO cells; assay type: cell-based, herpes simplex virus; conditions: 100 μM
Method: as §2, §3

[7] = system: MCMV; test: Interference of peptide mediated reduction by heparin (MCMV plaque reduction); assay type: cell-based, Murine Cytomegalovirus; conditions: peptide 100 μM pre-incubated with heparin 1 h at 37° C. before addition to cells
Method: Peptide GGGY-p5+14 (SEQ ID NO: 25) (at 100 μM) was pre-incubated with heparin sodium salt (Acros Organics, NJ) at different concentrations for 1 h at 37° C. Following which the heparin/peptide mix was added to the cells and incubated for 30 min at 37° C. Following the incubation, the supernatant was aspirated and cells washed once with PBS to remove unbound/excess heparin or peptide. The cells were subsequently infected with ˜100 pfu/well of MCMV. To test whether heparin treatment of cells interferes with virus infection, MEF 10.1 cells in a 24 well dish were pre-incubated with different concentrations of heparin for 1 hour and washed as described above. Following the pre-incubation infection was initiated as mentioned above. Finally to test the effect of heparin treatment on the infectivity of virus, MCMV was incubated with different concentration of heparin for lhr before infecting cells. For all these treatments, the virus was removed lhr post infection and cells overlaid with CMC. Plates were incubated for 4 days before staining and counting the plaques. Plaque reduction assay was performed as mentioned above.

[8] = system: MEF 10.1 cells; test: Visualization of bound biotinylated peptide on fixed MEF cells (fluorescence); assay type: binding, Mouse; conditions: 1.6 μg/mL, streptavidin fluorescence
Method: Coverslips with fixed MEF cells prepared, washed in PBS and blocked with 1% BSA/PBS for 5 min. Following a PBS wash the nuclei were stained by using Hoechst (Life Technologies Molecular Probes, Grand Island, N.Y.) 1:100 in H2O— for 30 min at 37° C. Tissues were then blocked using a casein block solution (Scytek) for 5 min, AVIDIN/Biotin blocks (VECTOR, Burlingame, Calif.) for 20 min each at room temperature (RT) followed by a 5 min PBS wash. Biotinylated GGGY-p5+14 (SEQ ID NO: 25) or p5G (control) at 1.6 μg/mL in PBS was added and the tissues incubated overnight at 4° C. Following a PBS wash Alexa Fluor 594-conjugated streptavidin (Molecular Probes) was added at a 1:200 dilution in PBS for lhr at RT. Cells were then permeabilized by addition of 0.2% Triton X-100 (Sigma) in PBS for 10 min at RT and washed with a solution of 1% BSA in PBS for 30 min. The cells were then stained with Alexa Fluor 488-conjugated phalloidin (Molecular Probes) 1:100 dilution of stock in 1% BSA/PBS, for 45 min. at RT to visualize cytoskeleton. Slides were cover-slipped using a fluorescent mounting medium (Dako, Carpinteria, Calif.) to minimize photobleaching.

In the case of “GGGYSKAQKAQAKQAKQAQKAQKAQAKQAKQAQKAQKAQAKQAKQ [GGGY-p5+14]”, the “reduction in the amount of bound peptide” value ([1]; cells treated with chondroitinase) is reported as ~11%, the “reduction in the amount of bound peptide” value ([1]; cells treated with heparinase) is reported as ~40% and the “reduction of infection (HCMV)” value [2] is reported as ~80%. The IC50 [3] was 5.2 µM, the “reduction in infection (MCMV)” value ([3]; 10 μM) was > 80% and the “inhibition of MCMV infection” value ([3]; 100 μM) was “effectively inhibited”. The “inhibition of MCMV infection (plaque reduction)” value ([3]; 500 μg/ml, mouse embryonic fibroblasts incubated with peptide 30 min prior to virus) was > 90%, the “direct neutralizing effect on the virus” value ([3]; MCMV incubated with 100 μM peptide at 37° C. for 1 h, diluted to 1 μM) was “did not have any direct neutralizing effect on the virus itself” and the “plaque formation, peptide added after the adsorption or fusion phase of viral entry” value ([3]; post adsorption or post fusion) was “no significant reduction in plaque formation”. For the same sequence, the “infection (plaque formation), peptide added before or in conjunction with virus addition” value ([3]; pre-adsorption or during adsorption) was > 80%, the “concentrations giving significant reduction in infection” value ([3]; serial dilution of peptide, FIG. 1(B)) was > 5 µg/mL and the “peptide binding to GAGs expressed in healthy organs or tissues” value [4] was “no evidence of peptide binding to GAGs expressed in healthy organs or tissues”. The “effect of chondroitinase treatment of cells on the activity of the peptide” value ([5]; chondroitinase 1 U/ml) was “nor did it have any effect on the activity of the peptide”, the “reduction in MCMV infectivity, peptide added to heparinase treated cells” value ([5]; heparinase 1 U/ml plus peptide) was ~80% and the “reduction of HSV 2 infection” value [6] was ~40%. The “effect of pre-incubation of peptide with heparin on inhibition of MCMV infection” value [7] was “reduced its ability to inhibit MCMV infection in a dose-dependent manner” and the “binding to mouse fibroblasts in culture” value [8] was “bound mouse fibroblasts”.
